# Active and inactive are the calls of the source.
# How the values were obtained:
# [1] = target: Cytochrome P450 2C9 (Homo sapiens, UniProt P11712); conditions: Potency
# [2] = target: Acyl-homoserine lactone acylase PvdQ (Pseudomonas aeruginosa (strain LESB58), UniProt Q9I194); assay: P. aeruginosa PvdQ acylase inhibitors, dose response, biochemical, fluorescence, plate reader and imaging, cherry-picks (AID 493231)
# [3] = target: T1, Aspartyl aminopeptidase (Plasmodium falciparum 3D7, UniProt Q8I2J3)
# T1 sequence (Q8I2J3 whole entry): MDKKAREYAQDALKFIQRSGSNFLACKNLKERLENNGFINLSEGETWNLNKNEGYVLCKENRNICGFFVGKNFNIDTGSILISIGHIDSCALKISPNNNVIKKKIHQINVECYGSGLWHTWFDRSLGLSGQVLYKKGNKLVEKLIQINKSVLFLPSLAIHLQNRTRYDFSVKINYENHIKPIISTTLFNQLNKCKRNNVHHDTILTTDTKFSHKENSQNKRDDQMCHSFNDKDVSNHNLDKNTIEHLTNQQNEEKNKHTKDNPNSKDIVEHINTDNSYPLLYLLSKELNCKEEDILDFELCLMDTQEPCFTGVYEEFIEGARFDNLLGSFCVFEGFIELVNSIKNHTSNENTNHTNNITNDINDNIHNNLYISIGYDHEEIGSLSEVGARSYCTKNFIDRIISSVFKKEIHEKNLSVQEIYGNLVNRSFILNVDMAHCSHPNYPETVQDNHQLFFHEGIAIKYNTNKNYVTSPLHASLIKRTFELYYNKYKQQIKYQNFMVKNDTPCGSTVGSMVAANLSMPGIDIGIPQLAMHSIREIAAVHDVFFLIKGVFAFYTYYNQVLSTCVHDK
# [4] = target: Procathepsin L (Homo sapiens, UniProt P07711)
# Procathepsin L, sequence (P07711 whole entry): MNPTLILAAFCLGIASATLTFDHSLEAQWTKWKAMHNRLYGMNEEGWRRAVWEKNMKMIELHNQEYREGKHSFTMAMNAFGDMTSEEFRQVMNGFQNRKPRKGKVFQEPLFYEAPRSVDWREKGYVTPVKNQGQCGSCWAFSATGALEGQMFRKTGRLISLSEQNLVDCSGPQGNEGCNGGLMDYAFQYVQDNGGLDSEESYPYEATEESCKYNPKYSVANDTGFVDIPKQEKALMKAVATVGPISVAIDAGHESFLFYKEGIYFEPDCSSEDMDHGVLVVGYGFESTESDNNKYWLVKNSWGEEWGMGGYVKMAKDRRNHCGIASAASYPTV
# [5] = target: Lysosomal acid glucosylceramidase (Homo sapiens, UniProt P04062); assay: Dose response cell-based high throughput screening assay to identify enhancers of beta-glucosidase activity. [Related pubchem assays: 784 ]; type: functional
# Lysosomal acid glucosylceramidase, sequence (P04062 whole entry): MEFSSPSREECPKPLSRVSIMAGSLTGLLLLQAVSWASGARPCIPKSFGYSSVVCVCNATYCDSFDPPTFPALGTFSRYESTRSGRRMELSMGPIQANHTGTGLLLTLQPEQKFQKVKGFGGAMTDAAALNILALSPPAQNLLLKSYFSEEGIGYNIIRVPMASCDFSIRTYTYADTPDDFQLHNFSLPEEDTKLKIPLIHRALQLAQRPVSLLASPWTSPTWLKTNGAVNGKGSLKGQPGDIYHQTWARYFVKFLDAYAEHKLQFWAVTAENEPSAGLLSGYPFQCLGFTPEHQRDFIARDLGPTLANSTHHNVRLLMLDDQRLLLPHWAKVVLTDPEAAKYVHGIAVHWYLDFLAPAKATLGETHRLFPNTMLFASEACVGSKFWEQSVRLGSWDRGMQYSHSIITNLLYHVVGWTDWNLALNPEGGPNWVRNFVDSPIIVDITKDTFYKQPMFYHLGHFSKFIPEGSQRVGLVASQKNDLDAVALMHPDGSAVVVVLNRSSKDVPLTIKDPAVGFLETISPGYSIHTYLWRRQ
# [6] = cells; type: functional, cell-based
# [7] = inhibitors of firefly luciferase expression or activity, dose response, H4 neuroglioma cells, luminescence (AID 1990); type: functional, cell-based
# [8] = inhibitors of SNCA 5'UTR-driven translation, confirmation, luminescence, H4 neuroglioblastoma cells, dose confirmation (AID 2454); type: functional, cell-based;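 also: H4 neuroglioblastoma cells carrying an alpha-synuclein 5'UTR luciferase reporter; potency for inhibition of the luciferase signal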
# [9] = target: Paired box protein Pax-8 (Homo sapiens, UniProt Q06710); assay: inhibitors of PAX8-driven TPO luciferase reporter, dose response, RMG-I cells, cherry-pick (AID 687027); type: functional, cell-based;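 also: luciferase reporter driven by Pax8 target thyroperoxidase promoter measured by SteadyGlo luminescence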
# Paired box protein Pax-8, sequence (Q06710 whole entry, the tested form may be a part): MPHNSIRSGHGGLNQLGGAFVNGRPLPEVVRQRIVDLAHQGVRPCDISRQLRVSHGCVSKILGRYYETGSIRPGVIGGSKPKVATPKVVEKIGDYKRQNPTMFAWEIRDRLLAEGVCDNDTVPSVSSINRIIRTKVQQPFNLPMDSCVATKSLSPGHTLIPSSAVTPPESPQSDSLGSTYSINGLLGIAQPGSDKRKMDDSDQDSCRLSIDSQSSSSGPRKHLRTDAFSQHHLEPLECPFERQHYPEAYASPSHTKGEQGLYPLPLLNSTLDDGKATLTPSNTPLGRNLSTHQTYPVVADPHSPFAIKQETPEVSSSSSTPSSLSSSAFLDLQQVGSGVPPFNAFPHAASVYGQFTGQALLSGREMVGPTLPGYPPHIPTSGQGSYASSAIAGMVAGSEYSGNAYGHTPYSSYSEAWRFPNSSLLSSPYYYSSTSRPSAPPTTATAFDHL
# [10] = luciferase reporter signal reduction – luminescence, H4-C neuroglioblastoma cells, dose response (AID 2458); type: functional, cell-based;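 also: H4 neuroglioblastoma cells stably carrying a luciferase reporter gene fusion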
# [11] = Luminescence Cell-Based Dose Response HTS to Identify Inhibitors of 5'UTR Stem-Loop Driven Prion Protein mRNA Translation in H4 Neuroglioblastoma Cells. [Related pubchem assays: 1827 (Project Summary), 1813 (Primary HTS)]; type: functional
# [12] = target: T2, Nuclear receptor subfamily 0 group B member 1 (Homo sapiens, UniProt P51843); type: functional, cell-based;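 also: HEK293T cells transfected with SF-1 and DAX-1 plus StAR promoter luciferase reporter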
# T2 sequence (P51843 whole entry): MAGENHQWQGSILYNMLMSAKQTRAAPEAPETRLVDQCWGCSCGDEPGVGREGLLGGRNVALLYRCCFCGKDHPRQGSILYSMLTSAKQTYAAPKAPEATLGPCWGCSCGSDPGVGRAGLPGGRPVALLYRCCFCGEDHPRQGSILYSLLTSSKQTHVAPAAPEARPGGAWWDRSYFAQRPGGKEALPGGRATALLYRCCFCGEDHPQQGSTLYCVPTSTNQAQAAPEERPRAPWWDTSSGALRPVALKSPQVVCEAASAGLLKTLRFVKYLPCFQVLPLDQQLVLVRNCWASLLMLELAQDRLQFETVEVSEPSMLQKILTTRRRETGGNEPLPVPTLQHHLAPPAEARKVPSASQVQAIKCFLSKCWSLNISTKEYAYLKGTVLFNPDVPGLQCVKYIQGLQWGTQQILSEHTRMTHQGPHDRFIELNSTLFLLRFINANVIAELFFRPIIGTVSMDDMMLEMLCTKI
# [13] = cells; type: functional, cell-based; remark: listed apart in the source
# [14] = inhibitors of SNCA 5'UTR-driven reporter translation, confirmation, H4 neuroglioma cells, luminescence (AID 1988); type: functional, cell-based
# [15] = target: Melanin-concentrating hormone receptor 1 (Homo sapiens, UniProt Q99705); assay: Fluorescence-based counterscreen for antagonists of the G-protein coupled receptor 7 (GPR7): cell-based high throughput dose response assay to identify antagonists of the melanin-concentrating hormone receptor 1 (MCHR1).; type: functional
# Melanin-concentrating hormone receptor 1, sequence (Q99705 whole entry): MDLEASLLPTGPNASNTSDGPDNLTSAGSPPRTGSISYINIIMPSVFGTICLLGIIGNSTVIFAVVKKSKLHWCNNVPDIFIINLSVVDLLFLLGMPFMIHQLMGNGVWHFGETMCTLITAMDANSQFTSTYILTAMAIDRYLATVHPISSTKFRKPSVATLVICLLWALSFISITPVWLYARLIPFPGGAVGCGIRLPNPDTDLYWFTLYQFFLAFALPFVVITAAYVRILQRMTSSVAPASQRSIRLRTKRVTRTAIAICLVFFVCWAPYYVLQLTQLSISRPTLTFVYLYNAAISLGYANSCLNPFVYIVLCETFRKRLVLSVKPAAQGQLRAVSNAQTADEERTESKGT
# [16] = target: T3, Short transient receptor potential channel 4 (Mus musculus, UniProt Q9QUQ5); assay: mouse TRPC4 channel inhibitors, dose response, cell-based, HEK293 TRPC4/mu-opioid, Fluo-4 calcium (AID 434942); type: functional;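 also: potency of inhibitors blocking the TRPC4 calcium response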
# T3 sequence (Q9QUQ5 whole entry): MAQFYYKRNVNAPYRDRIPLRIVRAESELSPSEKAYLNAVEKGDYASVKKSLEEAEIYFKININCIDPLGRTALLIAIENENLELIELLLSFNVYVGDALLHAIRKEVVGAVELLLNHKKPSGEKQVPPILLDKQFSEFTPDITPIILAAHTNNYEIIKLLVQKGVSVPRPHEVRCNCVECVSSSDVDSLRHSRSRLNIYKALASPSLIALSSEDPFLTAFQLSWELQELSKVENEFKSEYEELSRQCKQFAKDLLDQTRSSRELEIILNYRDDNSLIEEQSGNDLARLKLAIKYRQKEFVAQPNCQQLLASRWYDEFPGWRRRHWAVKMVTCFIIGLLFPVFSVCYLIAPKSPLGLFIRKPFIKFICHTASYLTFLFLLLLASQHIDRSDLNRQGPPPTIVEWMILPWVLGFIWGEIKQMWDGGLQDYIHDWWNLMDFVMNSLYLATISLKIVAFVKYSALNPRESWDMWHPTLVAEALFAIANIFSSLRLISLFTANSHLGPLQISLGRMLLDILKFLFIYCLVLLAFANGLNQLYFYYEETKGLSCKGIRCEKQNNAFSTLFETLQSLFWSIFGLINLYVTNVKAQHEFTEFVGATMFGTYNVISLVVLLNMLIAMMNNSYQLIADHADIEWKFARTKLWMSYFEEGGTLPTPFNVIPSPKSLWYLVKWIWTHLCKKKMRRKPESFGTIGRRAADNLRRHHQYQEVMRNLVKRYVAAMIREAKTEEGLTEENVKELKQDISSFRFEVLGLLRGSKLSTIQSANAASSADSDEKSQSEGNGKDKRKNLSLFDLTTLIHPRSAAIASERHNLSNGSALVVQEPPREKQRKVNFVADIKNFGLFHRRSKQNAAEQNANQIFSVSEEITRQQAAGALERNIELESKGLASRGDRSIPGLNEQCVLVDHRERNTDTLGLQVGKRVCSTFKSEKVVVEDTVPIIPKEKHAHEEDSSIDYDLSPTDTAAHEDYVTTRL
# [17] = target: Cytochrome P450 2C19 (Homo sapiens, UniProt P33261); assay: qHTS Assay for Inhibitors and Substrates of Cytochrome P450 2C19. [Related pubchem assays: 410 ]; type: ADME; conditions: read-out: Potency
# Cytochrome P450 2C19, sequence (P33261 whole entry): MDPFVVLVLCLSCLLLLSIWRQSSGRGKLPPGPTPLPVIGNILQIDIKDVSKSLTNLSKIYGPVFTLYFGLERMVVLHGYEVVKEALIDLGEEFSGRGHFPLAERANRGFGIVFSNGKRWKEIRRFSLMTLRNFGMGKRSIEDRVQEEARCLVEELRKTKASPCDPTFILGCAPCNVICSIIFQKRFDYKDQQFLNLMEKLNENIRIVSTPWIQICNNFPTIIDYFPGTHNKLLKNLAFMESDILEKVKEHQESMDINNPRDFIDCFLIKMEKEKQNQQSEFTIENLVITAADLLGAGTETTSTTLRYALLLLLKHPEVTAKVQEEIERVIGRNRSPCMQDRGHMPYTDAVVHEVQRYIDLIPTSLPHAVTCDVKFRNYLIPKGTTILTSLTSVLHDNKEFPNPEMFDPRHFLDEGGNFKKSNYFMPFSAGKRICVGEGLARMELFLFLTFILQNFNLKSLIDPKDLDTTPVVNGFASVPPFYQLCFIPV
# [18] = target: T4, Low molecular weight phosphotyrosine protein phosphatase (Homo sapiens, UniProt P24666); type: functional; conditions: read-out: IC50_Mean;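 also: Dose-response confirmation assay measuring inhibition of LMPTP enzyme activity by fluorescence intensity read-out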
# T4 sequence (P24666 whole entry): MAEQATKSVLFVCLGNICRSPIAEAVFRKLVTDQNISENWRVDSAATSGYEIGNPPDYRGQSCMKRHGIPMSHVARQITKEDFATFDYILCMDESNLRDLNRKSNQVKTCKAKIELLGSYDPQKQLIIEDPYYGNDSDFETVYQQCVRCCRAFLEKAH
# [19] = target: Neurotensin receptor type 1 (Homo sapiens, UniProt P30989); type: functional;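 also: Image-based confirmatory dose-response assay measuring agonist activity at NTR1; NTR1-expressing U2OS osteosarcoma cells imaged for beta-arrestin GFP spot formation; agonist potency where compounds increase beta-arrestin recruitment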
# Neurotensin receptor type 1, sequence (P30989 whole entry): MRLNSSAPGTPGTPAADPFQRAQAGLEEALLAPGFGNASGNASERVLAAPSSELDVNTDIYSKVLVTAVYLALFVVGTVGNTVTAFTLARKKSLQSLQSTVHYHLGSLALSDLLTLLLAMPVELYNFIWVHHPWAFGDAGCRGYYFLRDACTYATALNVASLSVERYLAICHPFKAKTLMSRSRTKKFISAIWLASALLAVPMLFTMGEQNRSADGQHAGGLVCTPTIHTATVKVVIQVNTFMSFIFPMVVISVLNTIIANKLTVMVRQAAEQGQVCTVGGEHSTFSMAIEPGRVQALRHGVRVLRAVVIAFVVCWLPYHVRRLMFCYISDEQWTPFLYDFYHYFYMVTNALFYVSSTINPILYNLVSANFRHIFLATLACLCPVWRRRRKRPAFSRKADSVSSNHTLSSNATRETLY
# [20] = target: Large T antigen (Simian virus 40, UniProt P03070); type: functional, Betapolyomavirus macacae;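 also: Confirmatory-stage PubChem screen for compounds that inhibit SV40 T antigen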
# Large T antigen, sequence (P03070 whole entry): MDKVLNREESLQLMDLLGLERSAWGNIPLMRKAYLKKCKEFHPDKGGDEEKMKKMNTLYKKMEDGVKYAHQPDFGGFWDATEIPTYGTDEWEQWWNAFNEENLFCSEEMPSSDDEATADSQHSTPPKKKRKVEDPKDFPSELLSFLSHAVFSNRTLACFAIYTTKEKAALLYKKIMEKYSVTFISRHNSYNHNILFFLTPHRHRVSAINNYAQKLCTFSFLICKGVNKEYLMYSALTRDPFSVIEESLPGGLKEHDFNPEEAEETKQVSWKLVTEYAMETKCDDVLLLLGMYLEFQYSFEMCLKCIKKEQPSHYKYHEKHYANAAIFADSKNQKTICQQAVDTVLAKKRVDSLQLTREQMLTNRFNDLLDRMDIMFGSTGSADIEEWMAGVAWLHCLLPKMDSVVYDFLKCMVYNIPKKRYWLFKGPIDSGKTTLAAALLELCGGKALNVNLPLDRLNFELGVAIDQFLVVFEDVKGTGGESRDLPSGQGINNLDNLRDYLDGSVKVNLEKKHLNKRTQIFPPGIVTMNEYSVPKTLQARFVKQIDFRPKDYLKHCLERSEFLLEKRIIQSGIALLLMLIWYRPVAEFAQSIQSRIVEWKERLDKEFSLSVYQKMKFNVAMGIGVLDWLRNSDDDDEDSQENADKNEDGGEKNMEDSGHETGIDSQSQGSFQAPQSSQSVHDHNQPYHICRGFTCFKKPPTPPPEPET
# [21] = target: Hexokinase (Trypanosoma brucei, UniProt Q38C41); assay: Confirmation assay for inhibitors of Trypanosoma brucei hexokinase 1-Analogue-first series. [Related pubchem assays (depositor defined):AID1430, AID1632, AID2516, AID2560, AID2579, AID2600, AID449725, AID492951]; type: functional
# Hexokinase, sequence (Q38C41 whole entry): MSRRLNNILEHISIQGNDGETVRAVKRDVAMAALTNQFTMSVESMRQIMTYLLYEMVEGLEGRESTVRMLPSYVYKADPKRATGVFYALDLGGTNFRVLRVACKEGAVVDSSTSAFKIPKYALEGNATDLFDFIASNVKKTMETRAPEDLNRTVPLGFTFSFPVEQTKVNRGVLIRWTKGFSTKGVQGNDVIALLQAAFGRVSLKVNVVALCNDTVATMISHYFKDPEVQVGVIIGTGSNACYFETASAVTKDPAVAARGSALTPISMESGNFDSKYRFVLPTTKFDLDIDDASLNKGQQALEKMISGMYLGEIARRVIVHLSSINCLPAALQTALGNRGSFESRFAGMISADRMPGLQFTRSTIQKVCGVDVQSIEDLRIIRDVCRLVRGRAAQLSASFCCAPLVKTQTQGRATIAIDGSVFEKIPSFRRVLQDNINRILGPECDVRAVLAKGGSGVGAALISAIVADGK
# [22] = target: T5, Microphthalmia-associated transcription factor (Homo sapiens, UniProt O75030); assay: TRPM1 promoter luciferase signal decrease, dose response, MITF inhibitor project, cell-based, SK-MEL-5, cherry-picked, set 3 (AID 493073); type: functional
# T5 sequence (O75030 whole entry): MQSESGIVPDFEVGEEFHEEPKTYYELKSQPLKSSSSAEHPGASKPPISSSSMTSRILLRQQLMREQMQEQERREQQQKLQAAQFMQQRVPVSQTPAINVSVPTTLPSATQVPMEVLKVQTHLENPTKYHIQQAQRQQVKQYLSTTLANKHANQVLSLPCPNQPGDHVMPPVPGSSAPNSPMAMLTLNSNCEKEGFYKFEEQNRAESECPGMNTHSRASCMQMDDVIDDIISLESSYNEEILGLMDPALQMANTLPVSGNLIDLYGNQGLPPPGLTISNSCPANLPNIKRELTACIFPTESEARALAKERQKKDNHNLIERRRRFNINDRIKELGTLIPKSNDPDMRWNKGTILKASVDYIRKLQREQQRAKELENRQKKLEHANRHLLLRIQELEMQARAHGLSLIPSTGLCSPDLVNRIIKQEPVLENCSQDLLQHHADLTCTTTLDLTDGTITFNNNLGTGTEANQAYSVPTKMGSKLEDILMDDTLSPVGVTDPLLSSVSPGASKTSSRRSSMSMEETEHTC
# [23] = Luminescence Cell-Based Dose Retest to Confirm Inhibitors of Cancer Stem Cells. [Related pubchem assays (depositor defined):AID2717, AID2721]; type: functional; conditions: Homo sapiens
# Acyl-homoserine lactone acylase PvdQ, sequence (Q9I194 24-193 limits assumed): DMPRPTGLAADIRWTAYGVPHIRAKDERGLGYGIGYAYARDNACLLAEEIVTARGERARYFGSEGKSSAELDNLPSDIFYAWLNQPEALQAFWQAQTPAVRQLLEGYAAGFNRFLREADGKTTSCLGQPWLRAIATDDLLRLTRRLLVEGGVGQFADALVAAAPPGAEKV
# Acyl-homoserine lactone acylase PvdQ, sequence (Q9I194 217-762 limits assumed): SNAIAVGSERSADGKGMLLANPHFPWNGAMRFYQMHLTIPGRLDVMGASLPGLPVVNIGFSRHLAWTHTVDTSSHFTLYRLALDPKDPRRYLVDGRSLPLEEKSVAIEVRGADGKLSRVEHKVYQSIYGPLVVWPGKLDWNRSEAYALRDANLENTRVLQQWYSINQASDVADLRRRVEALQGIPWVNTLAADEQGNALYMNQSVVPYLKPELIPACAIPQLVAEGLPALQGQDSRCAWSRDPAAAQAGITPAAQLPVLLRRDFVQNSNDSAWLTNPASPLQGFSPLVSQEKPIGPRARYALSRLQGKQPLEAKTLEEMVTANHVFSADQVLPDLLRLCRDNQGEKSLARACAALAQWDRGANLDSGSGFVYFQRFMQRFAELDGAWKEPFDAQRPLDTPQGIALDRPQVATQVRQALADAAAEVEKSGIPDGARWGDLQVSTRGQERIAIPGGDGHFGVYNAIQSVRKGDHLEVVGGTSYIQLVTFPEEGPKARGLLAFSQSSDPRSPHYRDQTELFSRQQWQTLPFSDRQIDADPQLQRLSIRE
# Cytochrome P450 2C9, sequence (P11712 whole entry): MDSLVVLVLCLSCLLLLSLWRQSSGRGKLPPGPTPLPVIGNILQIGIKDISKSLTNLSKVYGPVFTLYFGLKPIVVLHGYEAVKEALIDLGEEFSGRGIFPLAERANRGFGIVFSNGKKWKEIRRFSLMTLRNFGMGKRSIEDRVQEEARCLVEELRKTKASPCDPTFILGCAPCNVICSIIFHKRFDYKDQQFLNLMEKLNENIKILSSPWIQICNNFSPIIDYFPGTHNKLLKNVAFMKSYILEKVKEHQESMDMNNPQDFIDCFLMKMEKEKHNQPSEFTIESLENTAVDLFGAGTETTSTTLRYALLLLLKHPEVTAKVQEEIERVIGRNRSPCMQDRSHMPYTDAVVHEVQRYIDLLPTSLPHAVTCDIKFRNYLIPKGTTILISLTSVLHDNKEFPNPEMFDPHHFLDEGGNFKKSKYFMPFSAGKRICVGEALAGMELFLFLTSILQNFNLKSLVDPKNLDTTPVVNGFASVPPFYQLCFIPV
smiles,measurement,setting,value
CCOC(c1cc(OC)cc([N+](=O)[O-])c1OC)C(C)C(OC)[C@@H](C)/C=C/CC(=O)OC (some centres not stated),AC50,[1],2.51 µM (inconclusive)
CC(C)Oc1ccc(CC2CCC(=O)N(C)C2=O)cc1 (configuration not stated),AC50,[2],26.2 µM (active)
O=C(CSc1nn(-c2ccccc2)c(=S)s1)Nn1cnnc1,IC50,[3],1.61 µM (active)
same,IC50,[4],> 59.6 µM (not active)
CCOc1ccccc1C1C(C(=O)Nc2ccccc2OC)=C(C)Nc2nnnn21 (configuration not stated),EC50,[5],> 10 µM (not active)
O=C(CSc1nnc[nH]1)Nc1nc(-c2ccccc2)ns1,IC50,[3],0.442 µM (active)
same,IC50,[4],> 59.6 µM (not active)
COC(=O)CN1CCN(C(=O)c2ccc(F)cc2)c2ccccc2C1,EC50,[5],> 50 µM (not active)
Cc1cc(C)c2nc(SCC(=O)N3CC(=O)Nc4ccccc43)c(C#N)cc2c1,IC50,[6],> 67.5 µM (inactive)
same,EC50,[7],130 nM (active)
same,EC50,[8],> 12 µM (inconclusive)
same,AC50,[9],1.25 µM (active)
same,EC50,[10],665 nM (active)
same,EC50,[11],217 nM (active)
same,IC50,[12],> 67.5 µM (inactive)
same,EC50,[13],> 12 µM (not active)
same,EC50,[14],< 100 nM (active)
COc1ccccc1C1CC(c2ccc(Cl)cc2)N=C2N=CNN21 (configuration not stated),IC50,[15],24.5 µM (not active)
CC(C)Cc1nc(N2CCOCC2)c(C#N)c2c1CCC2,EC50,[16],6.68 µM (active)
C=C(C)C(O)/C=C/c1ccc(OC)cc1 (configuration not stated),AC50,[17],501 nM (inconclusive)
same,AC50,[1],2.51 µM (inconclusive)
COc1ccc(-c2csc(N3CCN(c4cc(C)nc5ccccc45)CC3)n2)cc1OC,IC50,[18],11.8 µM (active)
same,EC50,[19],21.4 µM (inactive)
Cc1cc(C(=O)N2CCC(Cc3ccccc3)CC2)ccc1[N+](=O)[O-],IC50,[15],16.6 µM (not active)
COc1ccc(-c2ccc(OC(=O)NC3CCS(=O)(=O)C3)cc2)cc1 (configuration not stated),AC50,[2],30.7 µM (active)
same,IC50,[20],9.45 µM (active)
O=C(Nc1cc(Cl)ccc1C(=O)O)c1ccccc1,IC50,[21],> 25 µM (inactive)
O=c1c2cc(F)ccc2sn1-c1ccc(Cl)cc1,IC50,[21],3.01 µM (active)
O=C(/C=C\c1ccccc1)NCC(=O)N/N=C/c1ccc(O)cc1O,AC50,[22],7.99 µM (active)
same,EC50,[19],23.1 µM (inactive)
same,AC50,[23],11.1 µM (active)
CCOc1ccc(Br)cc1/C=N/O,EC50,[16],5.96 µM (active)

# From ChEMBL document CHEMBL1201862, “PubChem BioAssay data set” (2004)
